Consider 19 compounds from patent publication US4863935A, “Mitomycin compounds having useful anti-tumor activity” (priority 1986, dated 1989).

The term LD50 denotes the dose at which mortality reaches 50%. Low values mean a more toxic substance, high ones a less toxic substance. The ED50 is the dose that gives a 50% effect, or the effect in half of the subjects. Lower therefore signals an effect at a small dose.

Series [1] in a line: LD50 acute toxicity, ddy mice, single abdominal injection. The conditions noted are these: mouse, in vivo, ip, 5 ddy mice, 14 days observation, Behrens-Koerber's method. An excerpt:
(§1) As used herein, the term "LD50 " denotes the acute toxicity. The term "ED50 " denotes the administered amount needed for reducing the volume of Sarcoma 180 solid tumours in animals to 50% of the corresponding tumour volume in control (untreated) animals. The term "WBC4000 " denotes the minimum dose of the drug needed to reduce the number of peripheral leucocytes to 4000/mm^3. A greater TI value results in a broader tolerance to the drug, which is advantageous for higher anti-tumour activity and decreased toxicity. The term "T" used herein denotes the average survival days of the test animals administered with the test compound. The term "C" denotes the average survival days of the control (untreated) animals. The term "OPD" denotes the dose of the drug resulting in the highest survival ratio. The term "ILS30 " denotes a 30% increase of life-span.
LD50, ED50 and WBC4000 were respectively determined as follows:
Each animal of the test group, consisting of 5 ddy mice, was administered once with a test compound by abdominal injection. […] To determine the LD50 value, Behrens-Koerber's method was applied.

In another series the test system is Sarcoma 180 solid tumour. The series is described as follows: ED50 against Sarcoma 180 solid tumour implanted in mice. The series is classed as in vivo, male mouse (ddy strain). Particulars: for (CI)c: (CI of test compound)/(CI of mitomycin C), CI = LD50/ED50; for ED50: Mus musculus, Sarcoma-180, iv, 168 h, i.v. (tail vein) 24 h after implantation, tumour volume at 7 days, dose for T/C of 0.5.
From the text: With regard to the so-called chemotherapeutic index viz. the CI value against sarcoma 180 solid tumour, expressed by the formula: […]
as §1
the term (CI)c denotes (CI of the test compound)/(CI of mitomycin C), and
5×10^6 sarcoma 180 solid tumor cells were abdominally implanted into ddy mice. 7 days after this, ascites cells were sampled. The cells were washed once with a sterilized physiological saline and were used to prepare a cell suspension containing 5×10^7 cells per ml of a sterilized physiological saline. On each occasion, 0.1 ml of the cell suspension was subcutaneously implanted under the skin of the right armpit of a male mouse (ddy strain; body weight 20±2 g). The test compound which was dissolved in a physiological saline with or without addition of Tween 80 was injected into the tail vein of each animal of a group consisting of 5 mice at a dose of 0.1-0.2 ml 24 hours after the implantation of the tumor cells.
The anti-tumor activity was determined in the following manner:
7 days after the implantation, the major axis (a) and the minor axis (b) of the tumour were measured to calculate a value of (a×b^2)/2 which corresponds to the volume of the tumour. The antitumour activity was expressed by the ratio of the volume of the tumour (T) of the group of animals administered with the test compound to the corresponding volume of tumours (C) of the untreated animals.
On graph paper, T/C was plotted on the ordinate using an arithmetic scale and the administered amount of test compound was plotted on the abscissa using a logarithmic scale. The relationship between the dose and T/C was shown by a straight line determined by the method of least squares, from which ED50 viz. a dose corresponding to T/C of 0.5 was obtained.

The test system of series [2] is lymphocytic Leukemia P-388. The series is described as follows: Anti-tumour activity against lymphocytic Leukemia P-388 in mice. The series is classed as in vivo, mouse, female of CDF strain.
From the text: Also, their therapeutic indexes, expressed by the formula:
TI=(OPD)/(dose which results in ILS30),
against lymphocytic Leukemia P-388 and the maximum increased life spans (ILSmax), defined by the formula: […]
as §1
The experiment was carried out in the following manner. 1×10^6 lymphocytic Leukemia P-388 tumour cells were abdominally implanted into each mouse of a group consisting of 5 mice (body weight about 22 g; female of CDF strain). 24 hours after implantation, a physiological saline solution (0.2 ml) containing the test compound with or without addition of Tween 80 was abdominally given to the test animal.
Table 7 indicates anti-tumour activities of selected Compounds (I) against lyphocytic Leukemia P-388.

For the compound `CCCNC(=S)SCCNC1=C(C)C(=O)C2=C(C1=O)[C@@H](COC(N)=O)[C@@]1(OC)[C@H]3N[C@H]3CN21` [Compound 40, 7-N--(2-n-propylaminothiocarbonylthioethyl)mitomycin C], the LD50 at 336 h in series [1] is above 25 mg/kg. In the series on Sarcoma 180 solid tumour, the “(CI)c” value is recorded as above 1.03 and the ED50 came to 10.1 mg/kg.
The like results for `CO[C@@]12[C@H](COC(N)=O)C3=C(C(=O)C(C)=C(NCCSC(=O)N4CCCCC4)C3=O)N1C[C@@H]1N[C@@H]12` [Compound 42, 7-N--(2-piperidinocarbonylthioethyl)mitomycin C] were, in that order, 33.8 mg/kg, 1.14 and 9.34 mg/kg.
In the same order, the values of `COC(=O)[C@@H]1CC(O)CN1C(=O)SCCNC1=C(C)C(=O)C2=C(C1=O)[C@@H](COC(N)=O)[C@@]1(OC)[C@H]3N[C@H]3CN21` (stereo partly drawn) [Compound 44, 7-N--[2-((S)--2-methoxycarbonyl-(SR)-4-hydroxypyrrolidino)carbonylthioethyl]mitomycin C] are above 100 mg/kg, above 1.85 and 27.5 mg/kg.
With `CO[C@@]12[C@H](COC(N)=O)C3=C(C(=O)C(C)=C(NCCSC(=O)NC(CO)C(C)C)C3=O)N1C[C@@H]1N[C@@H]12` (stereo partly shown) [Compound 48, 7-N--[2-(1-hydroxymethyl-2-methylpropyl)aminocarbonylthioethyl]mitomycin C], the LD50 at 336 h in series [1] is 45 mg/kg. Also, in the series on Sarcoma 180 solid tumour, the “(CI)c” value was 1.39 and the 50% effect level (ED50) was put at a dose of 14.3 mg/kg.
The like results for `CO[C@@]12[C@H](COC(N)=O)C3=C(C(=O)C(C)=C(NCCSC(=O)N4CCC[C@H]4C(=O)N(C)C)C3=O)N1C[C@@H]1N[C@@H]12` [Compound 18, 7-N--[2-((S)--2-dimethylaminocarbonylpyrrolidino)carbonylthioethyl]mitomycin C] were, in that order, 97.5 mg/kg, 3.02 and 12.3 mg/kg.
The like results for `CO[C@@]12[C@H](COC(N)=O)C3=C(C(=O)C(C)=C(NCCSC(=O)NCCc4ccccn4)C3=O)N1C[C@@H]1N[C@@H]12` [Compound 49, 7-N--[2-{2-(2-pyridyl)ethyl}aminocarbonylthioethyl]mitomycin C] were, in that order, 75 mg/kg, 1.57 and 22.8 mg/kg.
In the same order, the values of `CO[C@@]12[C@H](COC(N)=O)C3=C(C(=O)C(C)=C(NCCSC(=O)N4CCC(O)CC4)C3=O)N1C[C@@H]1N[C@@H]12` [Compound 43, 7-N--[2-(4-hydroxypiperidino)carbonylthioethyl]mitomycin C] are 52.5 mg/kg, 2.17 and 9.15 mg/kg.
In series [1], `CO[C@@]12[C@H](COC(N)=O)C3=C(C(=O)C(C)=C(NCCSC(=O)N4CCC[C@H]4C(=O)OCc4ccccc4)C3=O)N1C[C@@H]1N[C@@H]12` [Compound 16, 7-N--[2-((S)--2-benzyloxycarbonylpyrrolidino)-carbonylthioethyl]mitomycin C] displayed an LD50 at 336 h above 100 mg/kg. Moreover, in the series on Sarcoma 180 solid tumour, the “(CI)c” value is recorded as above 0.45 and the ED50 turned out to be 84.4 mg/kg.
In the same order, the values of `CO[C@@]12[C@H](COC(N)=O)C3=C(C(=O)C(C)=C(NCCSC(=O)NC(C)(C)C(=O)OC(C)(C)C)C3=O)N1C[C@@H]1N[C@@H]12` [Compound 34, 7-N--[2-(1-methyl-1-t-butoxycarbonylethyl)-aminocarbonylthioethyl]mitomycin C] are 37.5 mg/kg, 1.14 and 13.7 mg/kg.
In the same order, the values of `CO[C@@]12[C@H](COC(N)=O)C3=C(C(=O)C(C)=C(NCCSC(=S)NC4CCCCC4)C3=O)N1C[C@@H]1N[C@@H]12` [Compound 37, 7-N--(2-cyclohexylaminothiocarbonylthioethyl)mitomycin C] are 41.3 mg/kg, 0.73 and 23.5 mg/kg.
The like results for `CNC(=S)SCCNC1=C(C)C(=O)C2=C(C1=O)[C@@H](COC(N)=O)[C@@]1(OC)[C@H]3N[C@H]3CN21` [Compound 25, 7-N--(2-methylaminothiocarbonylthioethyl)mitomycin C] were, in that order, 52.5 mg/kg, 1.96 and 10.5 mg/kg.
In the case of `CO[C@@]12[C@H](COC(N)=O)C3=C(C(=O)C(C)=C(NCCSC(=O)NC(CC(=O)OCc4ccccc4)c4ccccc4)C3=O)N1C[C@@H]1N[C@@H]12` (stereo partly shown) [Compound 10, 7-N--[2-(1-phenyl-2-benzyloxycarbonylethyl)aminocarbonylthioethyl]mitomycin C], the LD50 at 336 h in series [1] is above 100 mg/kg. In the series on Sarcoma 180 solid tumour, the “(CI)c” value is recorded as above 0.43 and the 50% effect level (ED50) was put at a dose of 95.5 mg/kg.
In series [1], `CO[C@@]12[C@H](COC(N)=O)C3=C(C(=O)C(C)=C(NCCSC(=O)N4CCC[C@H]4C(=O)Nc4ccc(O)cc4)C3=O)N1C[C@@H]1N[C@@H]12` [Compound 45, 7-N--{2-[(S)--2-(4-hydroxyanilino)carbonylpiperidino]carbonylthioethyl}mitomycin C] showed an LD50 at 336 h above 100 mg/kg. In the series on Sarcoma 180 solid tumour, the “(CI)c” value was above 0.51 and the ED50 was 89.1 mg/kg.
In series [1], `CO[C@@]12[C@H](COC(N)=O)C3=C(C(=O)C(C)=C(NCCSCOC(=O)NCCC(=O)OC(C)(C)C)C3=O)N1C[C@@H]1N[C@@H]12` [Compound 2, 7-N--[2-(2-t-butoxycarbonylethyl)aminocarbonyloxymethylthioethyl]mitomycin C] showed an LD50 at 336 h of 45 mg/kg. For the same compound, in the series on Sarcoma 180 solid tumour, the “(CI)c” value is listed as 1.44 and the 50% effect level (ED50) was put at a dose of 11.2 mg/kg.
In the same order, the values of `CO[C@@]12[C@H](COC(N)=O)C3=C(C(=O)C(C)=C(NCCSC(=O)NC(C(C)C)C(C)C)C3=O)N1C[C@@H]1N[C@@H]12` [Compound 46, 7-N--[2-(1-isopropyl-2-methylpropyl)aminocarbonylthioethyl]mitomycin C] are 37.5 mg/kg, 1.27 and 12.5 mg/kg.
The like results for `CC1=C(NCCSC(=S)NC2CCCCC2)C(=O)C2=C(C1=O)N1C[C@H]3[C@H](N3C)[C@]1(O)[C@H]2COC(N)=O` (stereo partly shown) [Compound 38, 7-N--(2-cyclohexylaminothiocarbonylthioethyl)mitomycin D] were, in that order, 75 mg/kg, 0.79 and 39.5 mg/kg.
As for `CO[C@@]12[C@H](COC(N)=O)C3=C(C(=O)C(C)=C(NCCSC(=O)N4CCCC4)C3=O)N1C[C@@H]1N[C@@H]12` [Compound 21, 7-N--(2-pyrrolidinocarbonylthioethyl)mitomycin C], the LD50 at 336 h in series [1] turned out to be 37.5 mg/kg. In the series on Sarcoma 180 solid tumour, the “(CI)c” value stood at 1.44 and the ED50 was determined as 8.4 mg/kg.
The like results for `CO[C@@]12[C@H](COC(N)=O)C3=C(C(=O)C(C)=C(NCCSC(=O)N4CCC[C@H]4C(N)=O)C3=O)N1C[C@@H]1N[C@@H]12` [Compound 19, 7-N--[2-((S)--2-carbamoylpyrrolidino)carbonylthioethyl]mitomycin C] were, in that order, 75 mg/kg, 1.46 and 19.6 mg/kg.
On to `CO[C@@]12[C@H](COC(N)=O)C3=C(C(=O)C(C)=C(NCCSC(=S)NC(c4ccccc4)c4ccccc4)C3=O)N1C[C@@H]1N[C@@H]12` [Compound 50], for which the “(ILSmax)c” value in series [2] ((ILSmax of test compound)/(ILSmax of mitomycin C), ILS=(T-C)/C×100) is on record as above 2.39. Besides, the “(TI)c” value in series [2] ((TI of test compound)/(TI of mitomycin C), TI = OPD/dose which results in ILS30) turned out to be 1.10. In series [2] (Mus musculus, P388, ip, dose resulting in the highest survival ratio, i.p. 24 h after implantation, 30 days, read-out: OPD), the ED (optimal dose, highest survival) is 12.5 mg/kg. Further, the ED (30% increase of life-span) in series [2] (Mus musculus, P388, ip, 30% increase of life-span, i.p. 24 h after implantation, read-out: Dose needed to give ILS30) was 0.74 mg/kg.
